From patent publication US6310095A, “Inhibitors of protein isoprenyl transferases” (University of Pittsburgh, priority 1998, dated 2001)

Each compound was assayed against T1, protein farnesyltransferase (Rattus norvegicus, UniProt Q02293+Q04631) (assay: in vitro inhibition of protein farnesyltransferase (scintillation proximity assay, biotin-K Ras B fragment)). Conditions: at 1 × 10^-5 M.
T1 construct: Rat brain protein farnesyltransferase activity is measured; from tissue; host or cells: rat brain; purified according to Reiss et al., Cell 62:81-88 (1990), steps one through three
Assay type: biochemical
Procedure, shortened: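 Scintillation proximity read-out of farnesylation, using a biotinylated K Ras B fragment (0.1 mM final) in place of biotin-lamin. Enzyme purified from rat brain; results given as % inhibition.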

Compound | inhibition at 10 µM [%]
CSCC[C@H](NC(=O)c1ccc(CNc2cccc(O)c2)cc1-c1ccccc1)C(=O)O [Example 676] | 76
CSCC[C@H](NC(=O)c1ccc(CNc2cccc(OC(F)(F)F)c2)cc1-c1ccccc1)C(=O)O [Example 678] | 73
CSCC[C@H](NC(=O)c1ccc(CNc2cccc(CO)c2)cc1-c1ccccc1)C(=O)O [Example 680] | 58
CSCC[C@H](NC(=O)c1ccc(CNc2cccc(N(C)C)c2)cc1-c1ccccc1)C(=O)O [Example 683] | 57
CSCC[C@H](NC(=O)c1ccc(CNc2cccc(CC(=O)O)c2)cc1-c1ccccc1)C(=O)O [Example 684] | 48
CSCC[C@H](NC(=O)c1ccc(CNc2cccc(CCC(=O)O)c2)cc1-c1ccccc1)C(=O)O [Example 685] | 55
CSCC[C@H](NC(=O)c1ccc(CNc2cccc(Oc3ccccc3)c2)cc1-c1ccccc1)C(=O)O [Example 686] | 48
CSCC[C@H](NC(=O)c1ccc(CNc2ccc(F)cc2)cc1-c1ccccc1)C(=O)O [Example 687] | 78
CSCC[C@H](NC(=O)c1ccc(CNc2ccc(I)cc2)cc1-c1ccccc1)C(=O)O [Example 688] | 71
CSCC[C@H](NC(=O)c1ccc(CNc2ccc(O)cc2)cc1-c1ccccc1)C(=O)O [Example 689] | 73
COc1ccc(NCc2ccc(C(=O)N[C@@H](CCSC)C(=O)O)c(-c3ccccc3)c2)cc1 [Example 690] | 61
CSCC[C@H](NC(=O)c1ccc(CNc2ccc(C(C)C)cc2)cc1-c1ccccc1)C(=O)O [Example 692] | 74
CSCC[C@H](NC(=O)c1ccc(CNc2ccc(C3CCCCC3)cc2)cc1-c1ccccc1)C(=O)O [Example 699] | 74
CSCC[C@H](NC(=O)c1ccc(CNc2ccc(-c3ccccc3)cc2)cc1-c1ccccc1)C(=O)O [Example 700] | 68
CSCC[C@H](NC(=O)c1ccc(CNc2ccc(Oc3ccccc3)cc2)cc1-c1ccccc1)C(=O)O [Example 701] | 64
CSCC[C@H](NC(=O)c1ccc(CNc2ccc(C(=O)c3ccccc3)cc2)cc1-c1ccccc1)C(=O)O [Example 702] | 79

Compound | inhibition at 10 µM [%]
CSCC[C@H](NC(=O)c1ccc(CNc2ccc3c(c2)CCC3)cc1-c1ccccc1)C(=O)O [Example 705] | 72
CSCC[C@H](NC(=O)c1ccc(CNc2cc(C)cc(C)c2)cc1-c1ccccc1)C(=O)O [Example 709] | 55
CSCC[C@H](NC(=O)c1ccc(CNc2cc(C(=O)O)cc(C(=O)O)c2)cc1-c1ccccc1)C(=O)O [Example 710] | 45
CCN(Cc1ccc(C(=O)N[C@@H](CCSC)C(=O)O)c(-c2ccccc2)c1)Cc1cc([N+](=O)[O-])ccc1O [Example 711] | 46
CSCC[C@H](NC(=O)c1ccc(CNCc2cc(Cl)cc(Cl)c2)cc1-c1ccccc1)C(=O)O [Example 712] | 69
CSCC[C@H](NC(=O)c1ccc(CNC(CO)C(O)c2ccccc2)cc1-c1ccccc1)C(=O)O (stereo partly shown) [Example 713] | 40
CSCC[C@H](NC(=O)c1ccc(CNC(CO)Cc2ccccc2)cc1-c1ccccc1)C(=O)O (stereo partly shown) [Example 714] | 56
CSCC[C@H](NC(=O)c1ccc(CN[C@H](CC2CCCCC2)[C@H](O)[C@H](O)CC(C)C)cc1-c1ccccc1)C(=O)O [Example 715] | 67
CSCC[C@H](NC(=O)c1ccc(CNCCCCc2ccccc2)cc1-c1ccccc1)C(=O)O [Example 718] | 40
CSCC[C@H](NC(=O)c1ccc(NC(=O)CCN)cc1-c1ccccc1)C(=O)O [Example 750] | 44
CSCC[C@H](NC(=O)c1ccc(NC(=O)c2cccc(N(C)C)c2)cc1-c1ccccc1)C(=O)O [Example 752] | 58
COc1cc(Cl)ccc1C(=O)Nc1ccc(C(=O)N[C@@H](CCSC)C(=O)O)c(-c2ccccc2)c1 [Example 753] | 55
COc1ccc(Br)c(C(=O)Nc2ccc(C(=O)N[C@@H](CCSC)C(=O)O)c(-c3ccccc3)c2)c1 [Example 754] | 40
COc1cc(I)c(C(=O)Nc2ccc(C(=O)N[C@@H](CCSC)C(=O)O)c(-c3ccccc3)c2)cc1OC [Example 756] | 47
CSCC[C@H](NC(=O)c1ccc(NC(=O)Cc2ccccc2[N+](=O)[O-])cc1-c1ccccc1)C(=O)O [Example 757] | 58
COc1ccc(C(=O)Nc2ccc(C(=O)N[C@@H](CCSC)C(=O)O)c(-c3ccccc3)c2)c(O)c1 [Example 758] | 46

The next lines start with the values.

inhibition at 10 µM [%] | Compound
48 | CSCC[C@H](NC(=O)c1ccc(CNc2ccccc2N(C)C)cc1-c1ccccc1)C(=O)O [Example 672]
40 | CSCC[C@H](NC(=O)c1ccc(CNc2cccc(C)c2)cc1-c1ccccc1)C(=O)O [Example 674]
67 | CSCC[C@H](NC(=O)c1ccc(CNc2ccc(C)c(C)c2)cc1-c1ccccc1)C(=O)O [Example 704]
53 | CSCC[C@H](NC(=O)c1ccc(CNc2ccc3c(c2)Cc2ccccc2-3)cc1-c1ccccc1)C(=O)O [Example 706]
76 | CSCC[C@H](NC(=O)c1ccc(CNc2ccc3ncccc3c2)cc1-c1ccccc1)C(=O)O [Example 708]

Same assay, conditions: at 1 × 10^-6 M

Compound | % inhibition of farnesyltransferase [%]
CSCC[C@H](NC(=O)c1ccc(CSc2nc(O)cc(Cc3ccccc3)n2)cc1-c1ccccc1C)C(=O)O [Example 744] | 84

Same assay, conditions: at 1 × 10^-6 M; read-out: % inhibition of farnesyltransferase

Compound | inhibition at 1 µM [%]
CSCC[C@H](NC(=O)c1ccc(CNc2ccccc2N2CCCCC2)cc1-c1ccccc1)C(=O)O [Example 673] | 59
CSCC[C@H](NC(=O)c1ccc(CNc2cccc(I)c2)cc1-c1ccccc1)C(=O)O [Example 677] | 37
CSCC[C@H](NC(=O)c1ccc(CNc2cccc(C(N)=O)c2)cc1-c1ccccc1)C(=O)O [Example 682] | 31
CSCC[C@H](NC(=O)c1ccc(CNc2ccc(OC(F)(F)F)cc2)cc1-c1ccccc1)C(=O)O [Example 691] | 34
CSCC[C@H](NC(=O)c1ccc(CNc2ccc(C(O)(C(F)(F)F)C(F)(F)F)cc2)cc1-c1ccccc1)C(=O)O [Example 693] | 53
CSCC[C@H](NC(=O)c1ccc(CNc2ccc(CCO)cc2)cc1-c1ccccc1)C(=O)O [Example 694] | 45
CSCC[C@H](NC(=O)c1ccc(CNc2ccc(N3CCCCC3)cc2)cc1-c1ccccc1)C(=O)O [Example 697] | 39
CSCC[C@H](NC(=O)c1ccc(CN[C@@H](CC2CCCCC2)[C@@H](O)[C@@H](O)CC(C)C)cc1-c1ccccc1)C(=O)O [Example 716] | 69
CNCC(=O)Nc1ccc(C(=O)N[C@@H](CCSC)C(=O)O)c(-c2ccccc2)c1 [Example 749] | 84
CSCC[C@H](NC(=O)c1ccc(NC(=O)C[C@H]2C[C@@H](C(C)=O)C2(C)C)cc1-c1ccccc1)C(=O)O [Example 751] | 32

Other lines, results leading:

inhibition at 1 µM [%] | Compound
40 | CSCC[C@H](NC(=O)c1ccc(CNc2ccc(-c3nc4ccccc4s3)cc2)cc1-c1ccccc1)C(=O)O [Example 703]
90 | CSCC[C@H](NC(=O)c1ccc(CN(C)CC(O)CO)cc1-c1ccccc1C)C(=O)O (stereo partly shown) [Example 719]
87 | CCc1nnc(NCc2ccc(C(=O)N[C@@H](CCSC)C(=O)O)c(-c3ccccc3C)c2)s1 [Example 723]
87 | COC(=O)c1cscc1NCc1ccc(C(=O)N[C@@H](CCSC)C(=O)O)c(-c2ccccc2C)c1 [Example 724]
81 | CSCC[C@H](NC(=O)c1ccc(CNc2ccc(S(=O)(=O)Nc3onc(C)c3C)cc2)cc1-c1ccccc1C)C(=O)O [Example 726]
95 | CSCC[C@H](NC(=O)c1ccc(CN[C@H](CO)Cc2ccccc2)cc1-c1ccccc1C)C(=O)O [Example 727]

Same assay, conditions: at 1 × 10^-7 M

Compound | % inhibition of farnesyltransferase [%]
CSCC[C@H](NC(=O)c1ccc(CSC2=NCCS2)cc1-c1ccccc1C)C(=O)O [Example 730] | 96
CSCC[C@H](NC(=O)c1ccc(CSc2nc3ccccc3[nH]2)cc1-c1ccccc1C)C(=O)O [Example 732] | 84
CSCC[C@H](NC(=O)c1ccc(CSc2nc3cc(C)ccc3[nH]2)cc1-c1ccccc1C)C(=O)O [Example 733] | 60
CSCC[C@H](NC(=O)c1ccc(CSc2nnc(N)s2)cc1-c1ccccc1C)C(=O)O [Example 734] | 49
CSCC[C@H](NC(=O)c1ccc(CSc2nnc[nH]2)cc1-c1ccccc1C)C(=O)O [Example 735] | 96
CSCC[C@H](NC(=O)c1ccc(CSc2ccccc2C(C)C)cc1-c1ccccc1C)C(=O)O [Example 739] | 83
CSCC[C@H](NC(=O)c1ccc(CSc2ccc(F)cc2)cc1-c1ccccc1C)C(=O)O [Example 740] | 94
CSCC[C@H](NC(=O)c1ccc(CSc2ccc(C)cc2C)cc1-c1ccccc1C)C(=O)O [Example 741] | 89
CSCC[C@H](NC(=O)c1ccc(CSc2nc(C)cc(C)n2)cc1-c1ccccc1C)C(=O)O [Example 743] | 51
CSCC[C@H](NC(=O)c1ccc(CSc2nc3ccccc3c(=O)[nH]2)cc1-c1ccccc1C)C(=O)O [Example 745] | 93
CSCC[C@H](NC(=O)c1ccc(CSc2ncnc3[nH]ncc23)cc1-c1ccccc1C)C(=O)O [Example 746] | 84
CSCC[C@H](NC(=O)c1ccc(CSc2ncnc3[nH]cnc23)cc1-c1ccccc1C)C(=O)O [Example 747] | 68

Same assay, conditions: at 1 × 10^-7 M; read-out: % inhibition of farnesyltransferase

Compound | inhibition at 0.1 µM [%]
CSCC[C@H](NC(=O)c1ccc(NC(=O)CN)cc1-c1ccccc1)C(=O)O [Example 748] | 56
